Reference: patent publication US9139568B2 (Merck Patent GmbH, priority 2011, dated 2015)
pIC50: −log10 of the molar value.

Experiments:
P70S6K = P70S6K (Homo sapiens (Human), UniProt P23443, T412E); assay: P70S6K Enzyme Assay; type: biochemical; conditions: P70S6K T412E mutant, 24 μM ATP, mobility shift (Caliper)
Protocol: P70S6K inhibitor compounds are diluted and plated in 96 well plates. […] The reaction is incubated for 90 min at 25° C., before the addition of 10 mM EDTA to stop the reaction. The proportion of substrate and product (phosphorylated) peptide is analysed on a Caliper Life Sciences Lab Chip 3000, using a pressure of −1.4 psi, and upstream and downstream voltages of −3000 and −700 respectively. Product peaks are resolved before substrate peaks on the resulting chromatograms.

AKT = AKT (Homo sapiens (Human), UniProt P31749); assay: AKT Enyzme Assay; type: biochemical; conditions: His-AKT (Full Length), 160 uM ATP, mobility shift (Caliper)
Protocol: A TTP Mosquito liquid handling instrument is used to place 125 nl of the appropriate concentration of inhibitor in 100% DMSO (for a dose response curve calculation) into each well of a 384-well plate.
The reaction is incubated for 90 min at 25 C, and then stopped by the addition of 70 μl of Stop buffer (100 mM HEPES pH 7.5, 0.015% Brij-35, 10 mM EDTA (Sigma, E7889)).
The plate is read on a Caliper LC 3000 in an Off-Chip mobility shift assay format, using the following parameters for a 12-sipper chip: screening pressure −2.3 psi, upstream voltage −500, and downstream voltage −3000. These conditions cause unphosphorylated substrate and phosphorylated product peptide to resolve as separate peaks allowing direct measurement of percentage of conversion of substrate to product. The percent conversion can be plotted against concentration of inhibitor to produce a sigmoidal dose response curve, from which an IC50 can be calculated.

Sequence of P70S6K (P23443 1-421 T412E): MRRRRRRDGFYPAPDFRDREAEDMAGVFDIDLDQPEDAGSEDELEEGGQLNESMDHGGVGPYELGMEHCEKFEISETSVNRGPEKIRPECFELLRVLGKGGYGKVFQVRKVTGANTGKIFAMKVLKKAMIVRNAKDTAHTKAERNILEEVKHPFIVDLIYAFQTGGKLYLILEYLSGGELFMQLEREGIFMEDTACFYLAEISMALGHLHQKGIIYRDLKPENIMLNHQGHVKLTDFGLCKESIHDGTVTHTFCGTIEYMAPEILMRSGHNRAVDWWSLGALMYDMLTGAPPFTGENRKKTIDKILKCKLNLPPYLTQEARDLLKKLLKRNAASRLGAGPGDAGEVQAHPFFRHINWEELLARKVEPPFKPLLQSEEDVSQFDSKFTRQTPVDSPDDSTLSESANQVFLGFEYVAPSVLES
Sequence of AKT (P31749 whole entry): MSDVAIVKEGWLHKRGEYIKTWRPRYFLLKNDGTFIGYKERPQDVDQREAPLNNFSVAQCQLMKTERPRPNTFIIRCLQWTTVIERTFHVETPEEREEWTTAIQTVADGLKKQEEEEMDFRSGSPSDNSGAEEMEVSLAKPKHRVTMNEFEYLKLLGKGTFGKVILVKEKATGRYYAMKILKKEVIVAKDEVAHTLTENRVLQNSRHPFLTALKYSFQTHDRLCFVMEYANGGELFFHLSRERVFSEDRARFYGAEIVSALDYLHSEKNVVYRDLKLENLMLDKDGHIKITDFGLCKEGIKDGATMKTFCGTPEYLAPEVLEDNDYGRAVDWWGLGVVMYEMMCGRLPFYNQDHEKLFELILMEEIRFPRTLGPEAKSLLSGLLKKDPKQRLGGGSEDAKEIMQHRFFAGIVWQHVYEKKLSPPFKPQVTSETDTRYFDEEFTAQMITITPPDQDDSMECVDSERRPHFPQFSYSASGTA

pIC50 (P70S6K) | pIC50 (AKT) | Structure (SMILES)
6.41 | 5.05 | Cc1cccc(C2CCNCC2Nc2ccc(C(N)=O)c3ncncc23)c1 (stereo not shown) [Example 73, 5-((4-(m-tolyl)piperidin-3-yl)amino)quinazoline-8-carboxamide]
6.92 | 5.62 | NC(=O)c1ccc(NCCc2cccc(F)c2)c2cncnc12 [Example 99, 5-[2-(3-fluorophenyl)ethylamino]quinazoline-8-carboxamide]
6.85 | 5.68 | NC(=O)c1ccc(NC2CNCCC2c2cccc(C(F)(F)F)c2)c2cncnc12 (stereo not shown) [Example 74, 5-((4-(3-(trifluoromethyl)phenyl)piperidin-3-yl)amino)quinazoline-8-carboxamide]
6.46 | 5.24 | NC(=O)c1ccc(N[C@@H]2CNCC[C@H]2c2ccc(F)c(Cl)c2)c2cncnc12 (single isomer, unassigned) [Example 78]
7.68 | 5.35 | NC(=O)c1ccc(NC2CNCC2c2cccc(C(F)(F)F)c2)c2cncnc12 (stereo not shown) [Example 71, 5-((4-(3-(trifluoromethyl)phenyl)pyrrolidin-3-yl)amino)quinazoline-8-carboxamide]
6.54 | 5.66 | NC(=O)c1ccc(N[C@H]2CNCC[C@@H]2c2ccc(F)cc2)c2cncnc12 (single isomer, unassigned) [Example 80]
7.28 | 6.05 | NC(=O)c1ccc(N[C@@H]2CNCC[C@H]2c2ccc(F)cc2)c2cncnc12 (single isomer, unassigned) [Example 81]
4.96 | < 4.00 | NC(=O)c1ccc(N(CCc2ccccc2)[C@@H]2CCCNC2)c2cncnc12 [Example 105, 5-[phenethyl-[(3R)-3-piperidyl]amino]quinazoline-8-carboxamide]
7.00 | < 4.00 | NC(=O)c1ccc(NC2CNCC2c2cccc(OC(F)(F)F)c2)c2cncnc12 (stereo not shown) [Example 72, 5-((4-(3-(trifluoromethoxy)phenyl)pyrrolidin-3-yl)amino)quinazoline-8-carboxamide]
< 4.00 | < 4.00 | Cc1ccc(Cl)cc1N1CCN(c2ccc(C(N)=O)c3ncncc23)CC1 [Example 111, 5-[4-(5-chloro-2-methylphenyl)-piperazin-1-yl]-quinazoline-8-carboxylic acid amide]
6.40 |  | NC(=O)c1ccc(N2CCN(c3ccccc3Cl)CC2)c2cncnc12 [Example 119, 5-[4-(2-chloro-phenyl)-piperazin-1-yl]-quinazoline-8-carboxylic acid amide]
6.00 |  | NC(=O)c1ccc(N2CCN(c3ccc(Cl)cc3)CC2)c2cncnc12 [Example 93, 5-[4-(4-chloro-phenyl)-piperazin-1-yl]-quinazoline-8-carboxylic acid amide]
6.59 |  | NC(=O)c1ccc(N2CCC(CNC(=O)Cc3ccccc3)C2)c2cncnc12 (stereo not shown) [Example 118]
6.60 |  | NC(=O)c1ccc(N2CC[C@H](c3ccc(F)cc3)[C@H](N)C2)c2cncnc12 (racemic) [Example 86, 5-[(3S,4R)-3-Amino-4-(4-fluoro-phenyl)-piperidin-1-yl]-quinazoline-8-carboxylic acid amide]
6.92 |  | NC(=O)c1ccc(N2CCC(c3ccccc3)C(N)C2)c2cncnc12 (racemic) [Example 82, 5-(3-amino-4-phenylpiperidin-1-yl)quinazoline-8-carboxamide]
6.28 |  | NC(=O)c1ccc(N2CC[C@@](N)(C(=O)Nc3ccc(F)c(C(F)(F)F)c3)C2)c2cncnc12 (single isomer, unassigned) [Example 116]

Further lines, the compound ahead of its results:

Structure (SMILES) | pIC50 (P70S6K) | pIC50 (AKT)
CN(C)C(CNc1ccc(C(N)=O)c2ncncc12)c1cccc(Cl)c1 (racemic) [Example 68, 5-((2-(3-chlorophenyl)-2-(dimethylamino)ethyl)amino)quinazoline-8-carboxamide] | 5.59 | < 4.00
NCC1CCCN(c2ccc(C(N)=O)c3ncncc23)C1 (racemic) [Example 56, 5-(3-(aminomethyl)piperidin-1-yl)quinazoline-8-carboxamide] | 4.25 | < 4.00
NC(=O)c1ccc(N2CCC(O)(c3ccccc3)C2)c2cncnc12 (racemic) [Example 66, 5-(3-hydroxy-3-phenylpyrrolidin-1-yl)quinazoline-8-carboxamide] | 5.74 | < 4.00
NC(=O)c1ccc(NC[C@H]2CCNC2)c2cncnc12 [Example 61, (S)-5-((pyrrolidin-3-ylmethyl)amino)quinazoline-8-carboxamide] | 5.77 | < 4.00
NC(=O)c1ccc(NCCCc2ccccc2)c2cccnc12 [Example 41, 5-(Phenylpropylamino)-quinoline-8-carboxamide] | < 6.00 | 
NC(=O)c1ccc(NC2CNCCC2c2ccccc2)c2cncnc12 (racemic) [Example 3, 5-((4-phenylpiperidin-3-yl)amino)quinazoline-8-carboxamide] | 8.39 | 
NC(=O)c1ccc(NC(=O)C(N)c2ccccc2)c2cccnc12 (racemic) [Example 29, 5-(2-amino-2-phenylacetamido)quinoline-8-carboxamide] | < 6.00 | 
NC(=O)c1ccc(NC2CNCCC2c2ccc(C(F)(F)F)c(F)c2)c2cncnc12 (single isomer, unassigned) [Example 5] | 8.00 | 
NC(=O)c1ccc(NC2CNCCC2c2ccc(C(F)(F)F)c(F)c2)c2cncnc12 (racemic) [Example 4, 5-((4-(3-fluoro-4-(trifluoromethyl)phenyl)piperidin-3-yl)amino)quinazoline-8-carboxamide] | 8.23 | 
NC(=O)c1ccc(NCc2ccc(F)cc2)c2cccnc12 [Example 31, 5-(4-Fluorobenzylamino)-quinoline-8-carboxamide] | 6.06 | 
NC(=O)c1ccc(N2CCC(CNC(=O)c3ccc(F)c(F)c3)C2)c2cncnc12 (racemic) [Example 54, 5-(3-((3,4-difluorobenzamido)methyl)pyrrolidin-1-yl)quinazoline-8-carboxamide] | 6.63 | 
NC(=O)c1ccc(NCC2(C(=O)Nc3ccccc3)CCNC2)c2cncnc12 (racemic) [Example 12, 5-(((3-(phenylcarbamoyl)pyrrolidin-3-yl)methyl)amino)quinazoline-8-carboxamide] | 6.19 | 
NC(=O)c1ccc(NCCc2ccccc2)c2cccnc12 [Example 40, 5-(Phenylethylamino)-quinoline-8-carboxamide] | < 6.00 | 
CNC[C@@H](Nc1ccc(C(N)=O)c2ncccc12)c1cccc(F)c1 [Example 16, (S)-5-((1-(3-fluorophenyl)-2-(methylamino)ethyl)amino)quinoline-8-carboxamide] | < 6.00 | 
NC(=O)c1ccc(NC(=O)C2NC[C@@H]2c2ccccc2)c2cccnc12 (stereo partly drawn) [Example 30, 5-((3S)-3-phenylazetidine-2-carboxamido)quinoline-8-carboxamide] | < 6.00 | 
NCC(c1ccc(C(F)(F)F)cc1)N1CCN(c2ccc(C(N)=O)c3ncncc23)CC1 (racemic) [Example 8, 5-(4-(2-amino-1-(4-(trifluoromethyl)phenyl)ethyl)piperazin-1-yl)quinazoline-8-carboxamide] | 6.68 | 
NC(=O)c1ccc(NC2(c3ccccc3)CNC2)c2cccnc12 [Example 19, 5-((3-phenylazetidin-3-yl)amino)quinoline-8-carboxamide] | < 6.00 | 
NC(=O)c1ccc(NCc2cccc(Cl)c2)c2cccnc12 [Example 34, 5-(3-Chlorobenzylamino)-quinoline-8-carboxamide] | 6.85 | 
NC(=O)c1ccc(NCc2cc(F)c(F)c(F)c2)c2cccnc12 [Example 36, 5-(3,4,5-trifluorobenzylamino)-quinoline-8-carboxamide] | < 6.00 | 
NC(=O)c1ccc(N2CCC(NC(=O)c3cccc(C(F)(F)F)c3)C2)c2cncnc12 (racemic) [Example 48, 5-(3-(3-(trifluoromethyl)benzamido)pyrrolidin-1-yl)quinazoline-8-carboxamide] | 5.66 | 
NC(=O)c1ccc(NC(=O)C2C[C@@H](c3ccccc3)CN2)c2cccnc12 (stereo partly drawn) [Example 28, 5-((4S)-4-phenylpyrrolidine-2-carboxamido)quinoline-8-carboxamide] | 6.24 | 
NC(=O)c1ccc(NCC(c2ccccc2)N2CCNCC2)c2cncnc12 (racemic) [Example 69, 5-((2-phenyl-2-(piperazin-1-yl)ethyl)amino)quinazoline-8-carboxamide] |  | 5.00
NC(=O)c1ccc(N2CCC(N)(C(=O)Nc3ccccc3)C2)c2cncnc12 (racemic) [Example 15, 5-(3-amino-3-(phenylcarbamoyl)pyrrolidin-1-yl)quinazoline-8-carboxamide] | 5.64 | 
NC(=O)c1ccc(N2CCC(NC(=O)Cc3ccc(F)cc3)C2)c2cncnc12 (racemic) [Example 51, 5-(3-(2-(4-fluorophenyl)acetamido)pyrrolidin-1-yl)quinazoline-8-carboxamide] | 5.27 | 
NC(=O)c1ccc(NC2CNCC[C@@H]2c2cccc(F)c2)c2cccnc12 (mixture of isomers) [Example 25, 5-((4-(3-fluorophenyl)piperidin-3-yl)amino)quinoline-8-carboxamide] | 6.28 | 
